Results as given in patent EP0470144B1, “BETA-HYDROXAMATE D-ASPARTIC ACID FOR TREATMENT OF VIRAL INFECTIONS AND TUMOURS” (priority 1989, dated 1990).

Columns and labels:
[1] = target: T1, transcriptase inverse (RT) du FLV (Friend murine leukemia virus, UniProt P26810); assay: Reverse transcriptase (RT) activity of highly purified FLV, poly A-oligo dT substrate; assay type: biochemical; details: at concentrations giving the anti-retroviral effect in cell culture
T1 construct: comme source de RT une préparation de FLV hautement purifié; from tissue; host or cells: highly purified FLV virus preparation (virions)
From the text: La transcriptase inverse étant la cible de divers agents anti-rétroviraux, il est intéressant de tester l'effet du DAH sur l'activité transcriptase inverse (RT) du FLV. Cet essai a été effectué en utilisant comme source de RT une préparation de FLV hautement purifié, et comme substrat du poly A-oligo dT. Les substrats ont été introduits dans le milieu réactionnel dans l'ordre suivant : DAH aux concentrations désirées, virus purifié, polyA-oligo dT, dTTP + ³HdTTP.

FLV = assay: Friend virus (FLV) replication in SC1 cell culture, reverse transcriptase activity in supernatants; assay type: cell-based; details: SC1 cells infected with FLV
From the text: Des cultures de cellules SC1 traitées avec du polybrène ont été infectées avec du FLV (5 x 10⁵ particules infectantes pour 2 x 10⁵ cellules). Les cellules ont ensuite été mises en culture avec diverses concentrations de DAH et l'activité de réplication du FLV a été mesurée par dosage de l'activité transcriptase inverse apparaissant dans les surnageants de milieux de culture aux 2ème, 4ème et 6ème jour après l'infection.

[2] = LD50 comparison of DAH and LAH; details: in vivo
[3] = test system: lymphocytes de donneurs sains; assay: Growth and cell mortality of uninfected lymphocytes from healthy donors; assay type: cell-based; details: 0,5-2 mM DAH
From the text: (§1) Cette inhibition est dose-dépendante. Les essais ont d'abord porté sur des lymphoytes de donneurs sains (Figures 1 et 2). On a pu mettre en évidence cette activité sur deux modèles de réplication du HIV : a) lymphocytes normaux infectés par le virus purifié et b) coculture des lymphocytes des malades du SIDA et de lymphocytes normaux. On a mesuré l'activité transcriptase inverse pendant 22 jours dans le surnageant de cultures cellulaires comme critère de prolifération virale. Le traitement avec le DAH a duré 72 heures de J₀ à J₃ de la manipulation (Figures 3, 4 et 5). […] Par contre, le DAH s'est montré plus toxique vis-à-vis des lymphocytes infectés par le virus du SIDA (Figures 6 et 7).
Effet du DAH sur le taux de croissance de lymphocytes de donneurs sains.
(●) absence de DAH (o) concentration en DAH = 0,5 mM (□) concentration en DAH = 1 mM (△) concentration en DAH = 1,5 mM (◇) concentration en DAH = 2 mM • . En abscisses : temps de culture (en jours) • . En ordonnées : taux de croissance
Effet du DAH sur la mortalité cellulaire de lymphocytes sains.
(●) absence de DAH (o) concentration en DAH = 0,5 mM (□) concentration en DAH = 1 mM (△) concentration en DAH = 1,5 mM (◇) concentration en DAH = 2 mM • . En abscisses : temps de culture (en jours) • . En ordonnées : proportion de cellules mortes (en %)

leucémie P388 = assay: Antitumour activity in the P388 leukaemia model, survival; assay type: in vivo, souris B6D2F1; details: for Nombre d'animaux survivants: at 30 days
From the text: L'activité antitumorale du DAH a été aussi étudiée sur deux autres modèles murins : le lymphome L5178Y et la leucémie P388.
Les cellules de la leucémie P388 sont maintenues par passage intrapéritonéaux chez la souris DBA/2 et injectées, pour les essais, à la dose de […] par souris sur la souris B6D2F1.

[4] = Pre-clinical pharmacology: DAH levels in serum and urine after intraperitoneal injection; assay type: in vivo, souris B6D2F1; details: 3 g/kg intraperitoneal
From the text: Le DAH a été dosé dans les sérums et les urines de souris B6D2F1 âgées de 8 semaines, ayant reçu une injection intrapéritonéale de DAH de 3 g/kg. Le DAH a été dosé par spectrophotométrie par mise en évidence du complexe Fe3+- hydroxamate à 550 nm.

[5] = test system: leucémie 1210, lymphome RBL5 et mélanome B16; details: 600 mg/kg per day for 5 days; cited from earlier work
[6] = Tolerance to prolonged administration in mice (30 days); assay type: in vivo, souris; details: 2 g/kg once daily or 1 g/kg twice daily
From the text: La tolérance à l'administration prolongée du DAH a été évaluée sur un groupe de 10 souris traitées pendant 30 jours à une injection quotidienne de 2 g/kg, et un groupe de 10 souris recevant pendant la même durée deux injections de 1 g/kg par jour. La tolérance a été excellente, sans signe clinique de toxicité, sans décès et avec un poids corporel restant dans un intervalle de +/- 10 % par rapport à un groupe contrôle de même âge et de même poids initial.

[7] = test system: lymphocytes infectés par le virus du SIDA; assay: Growth and cell mortality of HIV-infected lymphocytes; assay type: cell-based; details: 0,5-2 mM DAH; compared with uninfected lymphocytes
From the text: as §1
Effet du DAH sur le taux de croissance de lymphocytes infectés.
(●) absence de DAH (o) concentration en DAH = 0,5 mM (□) concentration en DAH = 1 mM (△) concentration en DAH = 1,5 mM (◇) concentration en DAH = 2 mM • . En abscisses : temps de culture (en jours) • . En ordonnées : taux de croissance.
Effet du DAH sur la mortalité cellulaire de lymphocytes infectés.
(●) absence de DAH (o) concentration en DAH = 0,5 mM (□) concentration en DAH = 1 mM (△) concentration en DAH = 1,5 mM (◇) concentration en DAH = 2 mM • . En abscisses : temps de culture (en jours) • . En ordonnées : proportion de cellules mortes (en %).

N[C@@H](CC(=O)NO)C(=O)O [DAH, D-acide aspartique β-hydroxamate]
effet sur l'activité RT [1]: aucun effet | activité transcriptase inverse abaissée (FLV; DAH 0,2 mM): ~70% | activité transcriptase inverse abaissée (FLV; DAH 0,5 mM): 80% | activité transcriptase inverse abaissée (FLV; DAH 1 mM): 90% | DL 50 % [2]: 10 g/kg | toxicité pour les lymphocytes non infectés par le virus HIV [3]: n'est pas toxique | T/Cx100 (leucémie P388; 1,5 g/kg x4/j, days 1,2,3): 155% | T/Cx100 (leucémie P388; 1,5 g/kg x 4/j, days 1,2,3,4,5): 190% | Nombre d'animaux survivants (leucémie P388; 1,5 g/kg x 4/j, days 1,2,3,4,5): 0/5 | Nombre d'animaux survivants (leucémie P388; 1,5 g/kg x4/j, days 1,2,3): 0/5 | modification structurale du DAH éliminé par voie urinaire [4]: aucune modification structurale | pic plasmatique moyen [4]: 6 mg/mL | pic urinaire [4]: 220 mg/mL | temps du pic plasmatique [4]: 20 min | élimination urinaire prolongée sur [4]: 24 heures | temps du pic urinaire ([4]; after injection): 250 min | demi-vie ([4]; decrease of plasma concentration): 35 min | activité in vivo sur trois modèles tumoraux murins [5]: aucune activité | poids corporel, intervalle (+/-) par rapport à un groupe contrôle [6]: ≤ 10% | tolérance à l'administration prolongée ([6]; no clinical sign of toxicity, no death): excellente | toxicité vis-à-vis des lymphocytes infectés par le virus du SIDA [7]: plus toxique
